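Five compound concentrations were applied to cells in 96-well plates for 48 hours; endpoints were derived by simple linear interpolation of the resulting dose-response curve. GI50 is the concentration that inhibits growth by half.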 Active and inactive are the calls of the source. No stated cut-off is given here; in the data, active = GI50 up to about 1.1 µM and inactive = higher.
Assays:
Test in all cases: NCI-60 cell line screen, 48 h
ACHN = system: ACHN
CAKI-1 = system: CAKI-1
CCRF-CEM = system: CCRF-CEM
HOP-62 = system: HOP-62
HOP-92 = system: HOP-92
HT-29 = system: HT-29
Hs-578T = system: Hs-578T
KM12 = system: KM12
LOX IMVI = system: LOX IMVI
NCI-H23 = system: NCI-H23
NCI-H460 = system: NCI-H460
PC-3 = system: PC-3
RXF 393 = system: RXF 393
SF-268 = system: SF-268
TK-10 = system: TK-10
UACC-62 = system: UACC-62
UO-31 = system: UO-31
MOLT-4 = system: MOLT-4
SR = system: SR
OVCAR-4 = system: OVCAR-4

| Structure (SMILES) | GI50 (ACHN) | GI50 (CAKI-1) | GI50 (CCRF-CEM) | GI50 (HOP-62) | GI50 (HOP-92) | GI50 (HT-29) | GI50 (Hs-578T) | GI50 (KM12) | GI50 (LOX IMVI) | GI50 (NCI-H23) | GI50 (NCI-H460) | GI50 (PC-3) | GI50 (RXF 393) | GI50 (SF-268) | GI50 (TK-10) | GI50 (UACC-62) | GI50 (UO-31) | GI50 (MOLT-4) | GI50 (SR) | GI50 (OVCAR-4) |
| --- | --- | --- | --- | --- | --- | --- | --- | --- | --- | --- | --- | --- | --- | --- | --- | --- | --- | --- | --- | --- |
| C#CC(=O)OCC#CCOC(=O)C#C | 18.3 µM (inactive) | 19.8 µM (inactive) | 15.9 µM (inactive) | 21.6 µM (inactive) | 16.9 µM (inactive) | 23 µM (inactive) | 27.8 µM (inactive) | 19.3 µM (inactive) | 1.05 µM (active) | 23.3 µM (inactive) | > 100 µM (inactive) | 28.7 µM (inactive) | 19.1 µM (inactive) | > 100 µM (inactive) | 16.3 µM (inactive) | 22.7 µM (inactive) | 9.14 µM (inactive) |  |  |  |
| CC(=O)C1COC(O)C1C (stereo not given) | 23.9 µM (inactive) | 22.8 µM (inactive) | 13.5 µM (inactive) | 16.3 µM (inactive) | 27.2 µM (inactive) | 29.4 µM (inactive) | 24.1 µM (inactive) | 13.6 µM (inactive) | 16.4 µM (inactive) | 16.1 µM (inactive) | 18.3 µM (inactive) | 20 µM (inactive) |  | 17.3 µM (inactive) | 28.6 µM (inactive) | 14 µM (inactive) | 17.7 µM (inactive) | 17.9 µM (inactive) | 11.5 µM (inactive) |  |
| O=C(O)CN1CCN2CCOCCOCCN(CC1)CCN(CC(=O)O)CC2 | > 100 µM (inactive) | > 100 µM (inactive) | > 100 µM (inactive) | > 100 µM (inactive) | > 100 µM (inactive) | > 100 µM (inactive) | > 100 µM (inactive) | > 100 µM (inactive) | > 100 µM (inactive) |  | > 100 µM (inactive) | > 100 µM (inactive) |  |  | > 100 µM (inactive) | > 100 µM (inactive) | > 100 µM (inactive) |  | > 100 µM (inactive) | > 100 µM (inactive) |
| CSc1nc(SC)c2ncn(C3CC(Oc4ccc(C)cc4)C(COc4ccc(C)cc4)O3)c2n1 (stereo not given) | > 100 µM (inactive) | > 100 µM (inactive) | > 100 µM (inactive) | > 100 µM (inactive) | > 100 µM (inactive) | > 100 µM (inactive) | > 100 µM (inactive) | > 100 µM (inactive) | > 100 µM (inactive) | > 100 µM (inactive) | > 100 µM (inactive) | > 100 µM (inactive) |  | > 100 µM (inactive) | > 100 µM (inactive) | > 100 µM (inactive) | 0.984 µM (active) |  |  | > 100 µM (inactive) |
| CCSc1[nH]c(Nc2nc(-c3ccccc3)n(-c3ccccc3)n2)c(C(N)=O)c1C(N)=O |  | > 10 µM (inactive) | > 10 µM (inactive) | > 10 µM (inactive) | > 10 µM (inactive) | > 10 µM (inactive) |  | > 10 µM (inactive) | > 10 µM (inactive) | > 10 µM (inactive) |  | > 10 µM (inactive) | 6.5 µM (inactive) | > 10 µM (inactive) | > 10 µM (inactive) | > 10 µM (inactive) |  | > 10 µM (inactive) | > 10 µM (inactive) | 5.28 µM (inactive) |
| CC(C)(CO)NC(=O)c1cccs1 | > 100 µM (inactive) | > 100 µM (inactive) | > 100 µM (inactive) | > 100 µM (inactive) | > 100 µM (inactive) | > 100 µM (inactive) |  | > 100 µM (inactive) | > 100 µM (inactive) | > 100 µM (inactive) | > 100 µM (inactive) | > 100 µM (inactive) |  | > 100 µM (inactive) | > 100 µM (inactive) | > 100 µM (inactive) | > 100 µM (inactive) | > 100 µM (inactive) | > 100 µM (inactive) | > 100 µM (inactive) |
| Cc1ccc(/C=C2\CN(C)CC3C2=NN(c2ccccc2)C3c2ccc(C)cc2)cc1 (stereo not given) | > 100 µM (inactive) | > 100 µM (inactive) | 29 µM (inactive) | > 100 µM (inactive) | > 100 µM (inactive) | > 100 µM (inactive) | > 100 µM (inactive) | > 100 µM (inactive) | > 100 µM (inactive) | > 100 µM (inactive) | > 100 µM (inactive) | 38.9 µM (inactive) | 34.4 µM (inactive) | > 100 µM (inactive) | > 100 µM (inactive) | > 100 µM (inactive) | > 100 µM (inactive) | 36.4 µM (inactive) |  | > 100 µM (inactive) |
| Nc1nc(NNc2ccccc2F)cc(=O)[nH]1 | > 100 µM (inactive) |  | 78.5 µM (inactive) | > 100 µM (inactive) |  | > 100 µM (inactive) | > 100 µM (inactive) | > 100 µM (inactive) | 42 µM (inactive) |  | > 100 µM (inactive) | > 100 µM (inactive) |  |  | > 100 µM (inactive) |  | > 100 µM (inactive) | > 100 µM (inactive) | > 100 µM (inactive) | > 100 µM (inactive) |

— ChEMBL document CHEMBL1201862, “PubChem BioAssay data set” (2004)
